Source: ChEMBL document CHEMBL4831542, “Design, Synthesis, and Biological Evaluation of Icaritin Derivatives as Novel Putative DEPTOR Inhibitors for Multiple Myeloma Treatment” (J Med Chem, 2021)
One block for each molecule: values may come before it. The source made the active and inactive calls. No cut-off for these calls is given here.

Assays:
RPMI-8226 [1] = assay: Antiproliferative activity against human RPMI8226 cells assessed as inhibition of cell proliferation at 125 uM incubated for 72 hrs by CCK8 assay; assay type: functional
RPMI-8226 [2] = assay: cells; settings: Homo sapiens, RPMI-8226, 72 h
Description: Antiproliferative activity against human RPMI-8226 cells assessed as inhibition of cell proliferation incubated for 72 hrs by CCK8 assay

RPMI-8226 [3] = assay: Induction of apoptosis in human RPMI8226 cells assessed as viable cells at 1 uM measured after 36 hrs by Annexin V-FITC based flow cytometry (reference value: 91.68%); assay type: functional; settings: read-out: Activity
RPMI-8226 [4] = assay: Induction of apoptosis in human RPMI8226 cells assessed as early apoptotic cells at 1 uM measured after 36 hrs by Annexin V-FITC based flow cytometry (reference value: 7.48%); assay type: functional
RPMI-8226 [5] = assay: Induction of apoptosis in human RPMI8226 cells assessed as late apoptotic cells at 1 uM measured after 36 hrs by Annexin V-FITC based flow cytometry (reference value: 0.81%); assay type: functional
RPMI-8226 [6] = assay: Induction of apoptosis in human RPMI8226 cells assessed as necrotic cells at 1 uM measured after 36 hrs by Annexin V-FITC based flow cytometry (reference value: 0.03%); assay type: functional
RPMI-8226 [7] = assay: Induction of apoptosis in human RPMI8226 cells assessed as viable cells at 2 uM measured after 36 hrs by Annexin V-FITC based flow cytometry (reference value: 91.68%); assay type: functional; settings: read-out: Activity
RPMI-8226 [8] = assay: Induction of apoptosis in human RPMI8226 cells assessed as early apoptotic cells at 2 uM measured after 36 hrs by Annexin V-FITC based flow cytometry (reference value: 7.48%); assay type: functional
RPMI-8226 [9] = assay: Induction of apoptosis in human RPMI8226 cells assessed as late apoptotic cells at 2 uM measured after 36 hrs by Annexin V-FITC based flow cytometry (reference value: 0.81%); assay type: functional
RPMI-8226 [10] = assay: Induction of apoptosis in human RPMI8226 cells assessed as necrotic cells at 2 uM measured after 36 hrs by Annexin V-FITC based flow cytometry (reference value: 0.03%); assay type: functional
RPMI-8226 [11] = assay: Induction of apoptosis in human RPMI8226 cells assessed as viable cells at 4 uM measured after 36 hrs by Annexin V-FITC based flow cytometry (reference value: 91.68%); assay type: functional; settings: read-out: Activity
RPMI-8226 [12] = assay: Induction of apoptosis in human RPMI8226 cells assessed as early apoptotic cells at 4 uM measured after 36 hrs by Annexin V-FITC based flow cytometry (reference value: 7.48%); assay type: functional
RPMI-8226 [13] = assay: Induction of apoptosis in human RPMI8226 cells assessed as late apoptotic cells at 4 uM measured after 36 hrs by Annexin V-FITC based flow cytometry (reference value: 0.81%); assay type: functional
RPMI-8226 [14] = assay: Induction of apoptosis in human RPMI8226 cells assessed as necrotic cells at 4 uM measured after 36 hrs by Annexin V-FITC based flow cytometry (reference value: 0.03%); assay type: functional
RPMI-8226 [15] = assay: Cell cycle arrest in human RPMI8226 cells assessed as accumulation of cells at G1 phase at 1 uM measured after 36 hrs by flow cytometry (reference value: 22.95%); assay type: functional
RPMI-8226 [16] = assay: Cell cycle arrest in human RPMI8226 cells assessed as accumulation of cells at G2 phase at 1 uM measured after 36 hrs by flow cytometry (reference value: 27.03%); assay type: functional
RPMI-8226 [17] = assay: Cell cycle arrest in human RPMI8226 cells assessed as accumulation of cells at S phase at 1 uM measured after 36 hrs by flow cytometry (reference value: 50.02%); assay type: functional
RPMI-8226 [18] = assay: Cell cycle arrest in human RPMI8226 cells assessed as accumulation of cells at G1 phase at 2 uM measured after 36 hrs by flow cytometry (reference value: 22.95%); assay type: functional
RPMI-8226 [19] = assay: Cell cycle arrest in human RPMI8226 cells assessed as accumulation of cells at G2 phase at 2 uM measured after 36 hrs by flow cytometry (reference value: 27.03%); assay type: functional
RPMI-8226 [20] = assay: Cell cycle arrest in human RPMI8226 cells assessed as accumulation of cells at S phase at 2 uM measured after 36 hrs by flow cytometry (reference value: 50.02%); assay type: functional
RPMI-8226 [21] = assay: Cell cycle arrest in human RPMI8226 cells assessed as accumulation of cells at G1 phase at 4 uM measured after 36 hrs by flow cytometry (reference value: 22.95%); assay type: functional
RPMI-8226 [22] = assay: Cell cycle arrest in human RPMI8226 cells assessed as accumulation of cells at G2 phase at 4 uM measured after 36 hrs by flow cytometry (reference value: 27.03%); assay type: functional
RPMI-8226 [23] = assay: Cell cycle arrest in human RPMI8226 cells assessed as accumulation of cells at S phase at 4 uM measured after 36 hrs by flow cytometry (reference value: 50.02%); assay type: functional
RPMI-8226 [24] = assay: Reduction in DEPTOR mRNA expression in human RPMI8226 cells by quantitative PCR analysis relative to control; assay type: functional, cell-based; settings: dose 1-4 µM
RPMI-8226 [25] = assay: Reduction in DEPTOR protein expression in human RPMI8226 cells incubated for 24 hrs by Western blot analysis; assay type: functional, cell-based; settings: dose 1-4 µM
RPMI-8226 [26] = assay: Antitumor activity against human RPMI8226 cells xenografted in BALB/c mouse assessed as tumor growth inhibition at 100 mg/kg, po once a day for 3 weeks relative to control; assay type: functional; settings: RPMI-8226, po, 504 h, read-out: TGI
RPMI-8226 [27] = assay: Antitumor activity against human RPMI8226 cells xenografted in BALB/c mouse assessed as tumor growth inhibition at 200 mg/kg, po once a day for 3 weeks relative to control; assay type: functional; settings: RPMI-8226, po, 504 h, read-out: TGI
RPMI-8226 [28] = assay: Antitumor activity against human RPMI8226 cells xenografted in BALB/c mouse assessed as reduction in tumor weight at 100 to 200 mg/kg, po once a day for 3 weeks; assay type: functional, organism-based; settings: dose 100-200 mg/kg
[29] = Toxicity in BALB/c mouse xenografted with human RPMI8226 cells assessed as change in body weight at 100 to 200 mg/kg, po once a day for 3 weeks; assay type: organism-based, RPMI-8226; settings: in vivo, 504 h, dose 100-200 mg/kg
NCI-H460 = assay: cells; settings: Homo sapiens, NCI-H460, 72 h
Description: Antiproliferative activity against human NCI-H460 cells assessed as inhibition of cell proliferation incubated for 72 hrs by CCK8 assay

SiHa = assay: cells; settings: Homo sapiens, 72 h
Description: Antiproliferative activity against human SiHa cells assessed as inhibition of cell proliferation incubated for 72 hrs by CCK8 assay

U-266 = assay: cells; settings: Homo sapiens, U-266, 72 h
Description: Antiproliferative activity against human U266 cells assessed as inhibition of cell proliferation incubated for 72 hrs by CCK8 assay

MOLT-4 = assay: cells; settings: Homo sapiens, MOLT-4, 72 h
Description: Antiproliferative activity against human MOLT-4 cells assessed as inhibition of cell proliferation incubated for 72 hrs by CCK8 assay

HL-60 = assay: cells; settings: Homo sapiens, HL-60, 72 h
Description: Antiproliferative activity against human HL-60 cells assessed as inhibition of cell proliferation incubated for 72 hrs by CCK8 assay

MCF7 = assay: cells; settings: Homo sapiens, MCF7, 72 h
Description: Antiproliferative activity against human MCF7 cells assessed as inhibition of cell proliferation incubated for 72 hrs by CCK8 assay

MGC-803 = assay: cells; settings: Homo sapiens, MGC-803, 72 h
Description: Antiproliferative activity against human MGC-803 cells assessed as inhibition of cell proliferation incubated for 72 hrs by CCK8 assay

HepG2 = assay: cells; settings: Homo sapiens, HepG2, 72 h
Description: Antiproliferative activity against human HepG2 cells assessed as inhibition of cell proliferation incubated for 72 hrs by CCK8 assay

U2OS = assay: cells; settings: Homo sapiens, 72 h
Description: Antiproliferative activity against human U2OS cells assessed as inhibition of cell proliferation incubated for 72 hrs by CCK8 assay

DLD-1 = assay: cells; settings: Homo sapiens, DLD-1, 72 h
Description: Antiproliferative activity against human DLD1 cells assessed as inhibition of cell proliferation incubated for 72 hrs by CCK8 assay

U-251 = assay: cells; settings: Homo sapiens, U-251, 72 h
Description: Antiproliferative activity against human U251 cells assessed as inhibition of cell proliferation incubated for 72 hrs by CCK8 assay

RPMI-8226 [30] = assay: Antiproliferative activity against human RPMI8226 cells assessed as inhibition of cell proliferation at 250 uM incubated for 72 hrs by CCK8 assay; assay type: functional

SMILES: COc1ccc(-c2oc3c(CNCC4CCOCC4)c(O)ccc3c(=O)c2O)c(OC)c1
- inhibition at 125 µM (RPMI-8226 [1]): 16%

SMILES: COc1ccc(-c2oc3c4c(ccc3c(=O)c2O)OCN(NCc2ccc(Cl)c(Cl)c2)C4)c(OC)c1
- inhibition at 125 µM (RPMI-8226 [1]): 36%

SMILES: COc1ccc(-c2oc3c(CN4CCOCC4)c(O)ccc3c(=O)c2O)c(OC)c1
- inhibition at 125 µM (RPMI-8226 [1]): 25%

SMILES: COc1ccc(-c2oc3c(CNC(Cc4ccccc4)C(=O)O)c(O)ccc3c(=O)c2O)c(OC)c1 (stereo not given)
- inhibition at 125 µM (RPMI-8226 [1]): 30%

SMILES: O=c1c(O)c(-c2ccc(Cl)c(Cl)c2)oc2c3c(ccc12)OCN(Cc1ccncc1)C3
- IC50 (RPMI-8226 [2]): 5.9 µM

SMILES: COc1ccc(-c2oc3c(CNCc4ccncc4)c(O)ccc3c(=O)c2O)c(OC)c1
- IC50 (RPMI-8226 [2]): 56.6 µM

SMILES: COc1ccc(-c2oc3c(CNCc4cccc(F)c4)c(O)ccc3c(=O)c2O)c(OC)c1
- inhibition at 125 µM (RPMI-8226 [1]): 19%

SMILES: COc1ccc(-c2oc3c(CN4CCCC4)c(O)ccc3c(=O)c2O)c(OC)c1
- inhibition at 250 µM (RPMI-8226 [30]): 53%

SMILES: COc1ccc(-c2oc3c(CNCC(=O)O)c(O)ccc3c(=O)c2O)c(OC)c1
- IC50 (RPMI-8226 [2]): 66.2 µM

SMILES: O=C(O)[C@@H]1CCCN1Cc1c(O)ccc2c(=O)c(O)c(-c3cccc(Cl)c3Cl)oc12
- inhibition at 125 µM (RPMI-8226 [1]): 49%

SMILES: COc1ccc(-c2oc3c(CC=C(C)C)c(O)cc(O)c3c(=O)c2O)cc1 [ICARITIN]
- IC50 (RPMI-8226 [2]): 20.8 µM

SMILES: O=c1c(O)c(-c2ccc(Cl)c(Cl)c2)oc2c(CN3CCOCC3)c(O)ccc12
- IC50 (RPMI-8226 [2]): 4.03 µM

SMILES: CCN(CC)Cc1c(O)ccc2c(=O)c(O)c(-c3ccc(OC)cc3OC)oc12
- inhibition at 125 µM (RPMI-8226 [1]): 25%

SMILES: COc1ccc(-c2oc3c(CNCc4ccccc4)c(O)ccc3c(=O)c2O)c(OC)c1
- IC50 (RPMI-8226 [2]): 14.9 µM

Second part, led by results:

- IC50 (RPMI-8226 [2]): 42.8 µM
SMILES: O=c1c(O)c(-c2cccc(Cl)c2Cl)oc2c(CN3CCCC3)c(O)ccc12

- IC50 (NCI-H460): > 10 µM
- IC50 (SiHa): > 10 µM
- IC50 (RPMI-8226 [2]): 1.09 µM
- IC50 (U-266): 1.11 µM
- IC50 (MOLT-4): 7.02 µM
- IC50 (HL-60): 6.6 µM
- IC50 (MCF7): 8.68 µM
- IC50 (MGC-803): > 10 µM
- IC50 (HepG2): > 10 µM
- IC50 (U2OS): > 10 µM
- IC50 (DLD-1): 10 µM
- IC50 (U-251): > 10 µM
SMILES: O=c1c(O)c(-c2ccc(Cl)c(Cl)c2)oc2c3c(ccc12)OCN(Cc1cccc(F)c1)C3
- viability at 1 µM (RPMI-8226 [3]): 65%
- Activity (RPMI-8226 [4]): 24.26%
- Activity (RPMI-8226 [5]): 9.16%
- Activity (RPMI-8226 [6]): 1.55%
- viability at 2 µM (RPMI-8226 [7]): 29.4%
- Activity (RPMI-8226 [8]): 53.44%
- Activity (RPMI-8226 [9]): 16.6%
- Activity (RPMI-8226 [10]): 0.54%
- viability at 4 µM (RPMI-8226 [11]): 13.9%
- Activity (RPMI-8226 [12]): 60.59%
- Activity (RPMI-8226 [13]): 25.18%
- Activity (RPMI-8226 [14]): 0.28%
- Activity (RPMI-8226 [15]): 22.33%
- Activity (RPMI-8226 [16]): 25.91%
- Activity (RPMI-8226 [17]): 51.75%
- Activity (RPMI-8226 [18]): 18.17%
- Activity (RPMI-8226 [19]): 26.33%
- Activity (RPMI-8226 [20]): 55.5%
- Activity (RPMI-8226 [21]): 22.38%
- Activity (RPMI-8226 [22]): 15.01%
- Activity (RPMI-8226 [23]): 62.51%
- Activity (RPMI-8226 [24]): Dose-Dependent Effect
- Activity (RPMI-8226 [25]): Dose-Dependent Effect
- inhibition in vivo at 100 mg/kg (RPMI-8226 [26]): 45.4%
- inhibition in vivo at 200 mg/kg (RPMI-8226 [27]): 61.1%
- Activity (RPMI-8226 [28]): Active
- Activity [29]: Non-Toxic

- IC50 (RPMI-8226 [2]): 4.81 µM
SMILES: O=c1c(O)c(-c2ccc(Cl)c(Cl)c2)oc2c3c(ccc12)OCN(CC1CCOCC1)C3

- IC50 (RPMI-8226 [2]): 4.29 µM
SMILES: CN1CCC(N2COc3ccc4c(=O)c(O)c(-c5cccc(Cl)c5Cl)oc4c3C2)CC1

- IC50 (RPMI-8226 [2]): 29.8 µM
SMILES: O=c1c(O)c(-c2cccc(Cl)c2Cl)oc2c(CN3CCOCC3)c(O)ccc12

- IC50 (RPMI-8226 [2]): 60.4 µM
SMILES: CCN(CC)Cc1c(O)ccc2c(=O)c(O)c(-c3cccc(Cl)c3Cl)oc12

- IC50 (RPMI-8226 [2]): 27.6 µM
SMILES: O=c1c(O)c(-c2ccncc2)oc2c3c(ccc12)OCN(Cc1ccc(Cl)c(Cl)c1)C3

- IC50 (RPMI-8226 [2]): 44.8 µM
SMILES: COc1ccc(-c2oc3c4c(ccc3c(=O)c2O)OCN(C2CCN(C)CC2)C4)c(OC)c1
